Some test systems named below: HL-60(TB) leukemia; SF-539 CNS; SF-295 CNS; OVCAR-8 ovarian; CCRF-CEM leukemia; HT29 colon; SNB-75 CNS; SN12C renal; HS 578T breast; PC-3 prostate.
Test in all cases: NCI tumour cell line growth inhibition, 48 h

SMILES strings stand for the structures.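 Five concentrations, 48 hours, 96-well plates. Abbreviation: GI50, concentration required for 50% inhibition of growth. TGI is the concentration that stops growth completely.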 Some results are limits rather than exact numbers.

As for `CCCCCCCC(=O)OCC(=O)[C@]1(O)Cc2c(O)c3c(c(O)c2[C@@H](OC2CC(N)C(O)C(C)O2)C1)C(=O)c1c(OC)cccc1C3=O` (some centres not stated), the GI50 in the test with HL-60(TB) leukemia is 0.0263 µM; in the test with SF-539 CNS, 0.166 µM; with SF-295 CNS it was 0.0471 µM. In addition, the TGI is 0.221 µM with HL-60(TB) leukemia, 1 µM in the test on SF-539 CNS and 1.23 µM with SF-295 CNS.
On to `O=C(N/N=C/c1cc(Cl)cc(Cl)c1[O-])c1ccccc1.O=C(N/N=C/c1cc(Cl)cc(Cl)c1[O-])c1ccccc1.[Co+2]`, for which the GI50 in the test on HL-60(TB) leukemia was 2.62 µM; in the test on OVCAR-8 ovarian, 21.1 µM; in the test with SF-539 CNS, 20.5 µM; in the test with CCRF-CEM leukemia it was 3.43 µM; in the test on HT29 colon it was 49.5 µM; in the test on SNB-75 CNS, 25.3 µM. Besides, the GI50 with SF-295 CNS is 20.8 µM; in the test with SN12C renal it was 14.8 µM. Also, the TGI with HL-60(TB) leukemia is 8.89 µM; with OVCAR-8 ovarian, more than 100 µM; in the test with SF-539 CNS, 93 µM; with CCRF-CEM leukemia, 19.6 µM; in the test with HT29 colon, more than 100 µM; in the test on SNB-75 CNS, more than 100 µM. Besides, the TGI in the test with SF-295 CNS was 97.6 µM; with SN12C renal, more than 100 µM.
As for `CCOC(=O)C(CNc1ccc(O)cc1)NC(=O)c1ccccc1` (configuration not stated), the TGI in the test with HL-60(TB) leukemia is 73.3 µM; in the test on OVCAR-8 ovarian, more than 100 µM; with SF-539 CNS it was more than 100 µM; in the test with CCRF-CEM leukemia, more than 100 µM; with HT29 colon, more than 100 µM; in the test with SNB-75 CNS, more than 100 µM. The TGI with SF-295 CNS and in the test on SN12C renal was more than 100 µM throughout.
In the case of `C[C@]12CCNC(=O)C=C1CC[C@@H]1C2CC[C@@]2(C)C1CC[C@@H]2OC(=O)COc1ccc(N(CCCl)CCCl)cc1` (some centres not stated), the TGI worked out at 7.4 µM in the test on HL-60(TB) leukemia; 17.8 µM with OVCAR-8 ovarian; 9.01 µM with SF-539 CNS; 9.45 µM in the test with CCRF-CEM leukemia; 27.5 µM in the test on HT29 colon; 47.2 µM with SNB-75 CNS. Further, the results for the TGI with SF-295 CNS, in the test with SN12C renal and in the test with HS 578T breast were 30.6 µM, 21.8 µM and 98.1 µM, respectively.
On to `CC1=C(C)C2(O)C(=C(C)C1=O)/C(=C(/O)c1ccccc1)c1nc3ccccc3n12` (configuration not stated), for which the GI50 is 18.3 µM in the test on HL-60(TB) leukemia; 18 µM in the test on OVCAR-8 ovarian; 21.7 µM in the test with SF-539 CNS; 12.2 µM with CCRF-CEM leukemia; 32.5 µM with HT29 colon; 11.7 µM in the test on SNB-75 CNS. The GI50 is 15.5 µM in the test with SF-295 CNS, 19.3 µM in the test on SN12C renal and 29.3 µM in the test on HS 578T breast. Besides, the TGI with HL-60(TB) leukemia was 56.7 µM; in the test on OVCAR-8 ovarian it was 41 µM; with SF-539 CNS, 44.5 µM; with CCRF-CEM leukemia, 38.5 µM; with HT29 colon, more than 100 µM; in the test on SNB-75 CNS, 32.1 µM. For the same compound, the results for the TGI in the test with SF-295 CNS, in the test with SN12C renal and in the test with HS 578T breast were 33.2 µM, 34.6 µM and 94.6 µM, respectively.
`N#Cc1ccc2cc3c(cc2c1)OCO3`: the TGI with HL-60(TB) leukemia was more than 100 µM; with SF-539 CNS, more than 100 µM; with CCRF-CEM leukemia it was more than 100 µM; with HT29 colon, more than 100 µM; with SNB-75 CNS, 74.3 µM; in the test on SF-295 CNS, more than 100 µM. Besides, the TGI in the test with SN12C renal was more than 100 µM.
For the compound `C/C=C/COC(=O)CO[N+](=O)[O-]`, the TGI in the test on HL-60(TB) leukemia, in the test on OVCAR-8 ovarian, in the test with SF-539 CNS, in the test with CCRF-CEM leukemia, in the test on HT29 colon and with SNB-75 CNS was more than 100 µM in each case. Besides, the TGI with SF-295 CNS and in the test with SN12C renal was more than 100 µM each time.
Turning to `CN(/N=C/c1cccc2cccnc12)c1c([N+](=O)[O-])cc([N+](=O)[O-])cc1[N+](=O)[O-]`, the TGI in the test with HL-60(TB) leukemia, in the test with OVCAR-8 ovarian, with SF-539 CNS, with HT29 colon, in the test with SNB-75 CNS and with SF-295 CNS was more than 100 µM each time. In the test with SN12C renal, the TGI was more than 100 µM.
Consider `Cc1ccc(C)c(NC(=O)CC2SC(=Nc3ccccc3Cl)NC2=O)c1` (configuration not stated), for which the TGI in the test on HL-60(TB) leukemia, with OVCAR-8 ovarian, in the test on SF-539 CNS, with CCRF-CEM leukemia, in the test with HT29 colon and in the test on SNB-75 CNS was more than 100 µM in each case. The TGI in the test on SF-295 CNS and in the test on SN12C renal was more than 100 µM throughout.
As to `COc1ccc(Cn2cc3c(c2-c2ccccc2)CCc2cnoc2-3)cc1N`, the GI50 with HL-60(TB) leukemia is 0.137 µM; in the test on OVCAR-8 ovarian, 0.468 µM; in the test on SF-539 CNS, 0.158 µM; in the test on CCRF-CEM leukemia, 0.245 µM; in the test with HT29 colon it was 1.78 µM; in the test on SNB-75 CNS, 0.114 µM. Moreover, the figures for the GI50 in the test with SF-295 CNS, in the test on PC-3 prostate and in the test with SN12C renal were 0.154 µM, 0.551 µM and 0.694 µM, respectively. The TGI in the test on HL-60(TB) leukemia was 0.617 µM; in the test on OVCAR-8 ovarian, more than 100 µM; with SF-539 CNS, 0.579 µM; in the test with HT29 colon it was 15.1 µM; in the test with SNB-75 CNS it was 0.777 µM; in the test with SF-295 CNS it was 3.28 µM. Besides, the TGI in the test with PC-3 prostate and with SN12C renal was more than 100 µM in each case.
As for `COC1OC(C)C2OC(C)(C)OC2C1OC(C)=O` (configuration not stated), the TGI in the test on HL-60(TB) leukemia, in the test on OVCAR-8 ovarian, in the test with SF-539 CNS, in the test with CCRF-CEM leukemia, with HT29 colon and with SF-295 CNS was more than 100 µM in each case. The same compound displayed a TGI in the test on SN12C renal of more than 100 µM.
As for `CCCCCCCCCCCCCC(=O)CSCCNC(=O)CCNC(=O)[C@@H](O)C(C)(C)COP(=O)(O)OP(=O)(O)OCC1OC(n2cnc3c(N)ncnc32)C(O)C1OP(=O)(O)O` (some centres not stated), the TGI in the test on HL-60(TB) leukemia is 51.4 µM; with OVCAR-8 ovarian, 83.5 µM; in the test on SF-539 CNS, 29.8 µM; with CCRF-CEM leukemia, 99.2 µM; with HT29 colon it was 45.3 µM; with SNB-75 CNS it was 18.2 µM. Also, the TGI with SF-295 CNS worked out at 27.3 µM; in the test on SN12C renal it was 34.5 µM.
Take `CN(C)CCNC(=O)c1cccc2ccc(-c3ccc(-c4ccccc4)cc3)nc12`: the TGI in the test on HL-60(TB) leukemia is 4.23 µM; in the test with OVCAR-8 ovarian it was 7.66 µM; in the test with SF-539 CNS it was 3.31 µM; with CCRF-CEM leukemia it was 11.5 µM; with HT29 colon, 3.72 µM; in the test with SNB-75 CNS, 6.11 µM. Further, the TGI amounted to 4.03 µM with SF-295 CNS and 20.2 µM in the test on SN12C renal.
